By IC50 is commonly meant the concentration at which inhibition is half-maximal.

Experiment [1] concerns the target T1, Human DYRK1A (Homo sapiens, UniProt Q13627).
T1 construct: purchased Invitrogen PV3997
Kind of experiment: DYRK1A Kinase TR-FRET (IMAP-Tb) Assay. Type of experiment: biochemical. Conditions: for IC50: TR-FRET (IMAP-Tb), ATP 70 μM, 37° C. 60 minutes, read-out: Enzyme IC50 (μM) DYRK1A; for inhibition at 10 µM: read-out: % inhibition of DYRK1A at 10 μM test compound concentration. From the text:
The kinase TR-FRET (IMAP-Tb) assay uses a fluorescence labeled substrate peptide in the kinase reaction. Upon phosphorylation by the kinase, phosphopeptide is produced, which will be detected by the binding solution provided in IMAP TR-FRET binding kit. After the completion of the kinase reaction, the reaction will be stopped by adding the binding solution containing terbium tracer. This tracer is immobilized on the surface of the IMAP beads, which also contain metal ions on the beads that bind to the phospho-groups of the products. Thus the phosphorylated product of the reaction can enter into close proximity to the tracer, producing resonance energy transfer. Due to the long lifetime of terbium (Tb) fluorescence the detection can be run in time resolved mode, which virtually eliminates fluorescence interference from assay components or compounds.
The TR-FRET signal measurement from this assay, given as an IC50 measurement, is a measure of a test compound's ability to interfere with the phosphorylation of the peptide substrate, that is it inhibits the phosphorylation of the substrate peptide by DYRK1A, and is thus a measure of the test compound's ability to inhibit the activity of DYRK1A.
• 1. Human DYRK1A: from Invitrogen. Part #PV3997 • 2. Substrate Peptide: […] • 3. IMAP TR-FRET IPP Explorer Kit: from Molecular Devices. Part #R8157 • 4. Kinase Assay Buffer (KAB): 10 mM HEPES pH 7.0, 50 mM NaCl, 5 mM MgCl2, 1 mM DTT, 1 mM NaVO4, 200 μg/mL BSA (0.02%) • 5. Assay Plate: Remp polypropylene clear 384-well microplate. […] Detection Plate: Costa black 384-well microplate.
• 1. Transfer 1.5 μL of 20× compound solution to each well of an assay plate. • 2. Add to each well 22.5 μL of KAB Buffer. • 3. Add to each well 3 μL of the solution of DYRK1A and ATP. […] Add to each well 3 μL of the substrate peptide. The assay concentration is 1.0 μM • 5. Incubate the assay plates at 37° C. for 60 minutes. • 6. Add 18 μL of Detection Solution (1:800 diluted Progress bead stock, 1:400 diluted Tb stock, 80% Buffer A, and 20% Buffer B) into each well of detection plates. • 7. Transfer 6 μL of assay solution from the assay plate to the detection plate. • 8. Shake detection plates for 30 minutes. • 9. Read plates in Envision with wavelength set at excitation 340 nm for Tb, emission 490 nm, and […].

The target in experiment [2] is T2, Human DYRK1B (Homo sapiens, UniProt Q9Y463).
T2 construct: purchased Invitrogen PR8350B (former PV4649)
Kind of experiment: DYRK1B Kinase TR-FRET (IMAP-Tb) Assay. Type of experiment: biochemical. As to conditions: for IC50: TR-FRET (IMAP-Tb), ATP 70 μM, 37° C. 60 minutes, read-out: Enzyme IC50 (μM) DYRK1B; for inhibition at 10 µM: read-out: % inhibition of DYRK1B at 10 μM test compound concentration. For orientation: Time-resolved FRET reads energy transfer from a long-lived donor to a nearby acceptor.

T2 sequence (Q9Y463 whole entry): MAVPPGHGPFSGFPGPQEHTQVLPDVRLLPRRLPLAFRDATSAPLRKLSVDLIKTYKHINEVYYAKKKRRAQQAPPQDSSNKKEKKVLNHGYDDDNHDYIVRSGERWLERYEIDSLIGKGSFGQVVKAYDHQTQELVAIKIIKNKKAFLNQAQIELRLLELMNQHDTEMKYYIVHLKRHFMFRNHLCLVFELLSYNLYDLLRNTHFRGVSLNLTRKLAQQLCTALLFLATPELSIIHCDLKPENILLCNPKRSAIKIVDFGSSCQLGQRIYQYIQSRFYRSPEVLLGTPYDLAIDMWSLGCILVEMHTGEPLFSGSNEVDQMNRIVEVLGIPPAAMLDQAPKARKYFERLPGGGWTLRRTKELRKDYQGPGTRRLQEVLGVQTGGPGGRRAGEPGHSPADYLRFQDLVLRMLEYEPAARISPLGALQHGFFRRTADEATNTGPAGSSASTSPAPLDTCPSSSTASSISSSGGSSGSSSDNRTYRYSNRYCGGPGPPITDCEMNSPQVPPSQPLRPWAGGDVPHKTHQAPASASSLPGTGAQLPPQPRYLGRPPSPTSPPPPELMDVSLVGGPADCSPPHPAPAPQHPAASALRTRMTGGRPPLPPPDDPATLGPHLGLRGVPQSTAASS

Turning to `COC(=O)c1ccc(Cl)c(NC(=O)c2cc3cnc(NCCO)nc3[nH]c2=O)c1` [Example 41, 4-Chloro-3-{[2-(2-hydroxy-ethylamino)-7-oxo-7,8-dihydro-pyrido[2,3-d]pyrimidine-6-carbonyl]amino}-benzoic acid methyl ester], the IC50 worked out at 0.0796 µM in experiment [1] and 0.07 µM in experiment [2].
In the case of `CCOCCNc1ncc2cc(C(=O)Nc3cc(C(=O)OC)ccc3Cl)c(=O)[nH]c2n1` [Example 42, 4-Chloro-3-{[2-(2-ethoxy-ethylamino)-7-oxo-7,8-dihydro-pyrido[2,3-d]pyrimidine-6-carbonyl]-amino}-benzoic acid methyl ester], the values for the inhibition at 10 µM in experiment [1] and in experiment [2] were 60% and 39%, respectively.
On to `COC(=O)c1ccc(F)c(NC(=O)c2cc3cnc(OC)nc3[nH]c2=O)c1` [Example 43, 4-Fluoro-3-[(2-methoxy-7-oxo-7,8-dihydro-pyrido[2,3-d]pyrimidine-6-carbonyl)-amino]-benzoic acid methyl ester], for which the IC50 in experiment [1] came out at 9.8 µM. Besides, the inhibition at 10 µM in experiment [2] was determined as 41%.
Consider `CCN(CC)CCOc1ncc2cc(C(=O)Nc3cc(C(=O)OC)ccc3Cl)c(=O)[nH]c2n1` [Example 45, 4-Chloro-3-{[2-(2-diethylamino-ethoxy)-7-oxo-7,8-dihydro-pyrido[2,3-d]pyrimidine-6-carbonyl]amino}-benzoic acid methyl ester], for which the results for the IC50 in experiment [1] and in experiment [2] were 0.729 µM and 0.85 µM, respectively.
As for `COc1ncc2cc(C(=O)Nc3cc(C(=O)NCc4ccc(Cl)cc4)ccc3Cl)c(=O)[nH]c2n1` [Example 46, 2-Methoxy-7-oxo-7,8-dihydro-pyrido[2,3-d]pyrimidine-6-carboxylic acid [2-chloro-5-(4-chloro-benzylcarbamoyl)-phenyl]-amide], the IC50 in experiment [1] came to 1.16 µM; in experiment [2] it was 0.192 µM.
Consider `COc1ncc2cc(C(=O)Nc3cc(C(=O)NCc4ccccc4Cl)ccc3Cl)c(=O)[nH]c2n1` [Example 47, 2-Methoxy-7-oxo-7,8-dihydro-pyrido[2,3-d]pyrimidine-6-carboxylic acid [2-chloro-5-(2-chloro-benzylcarbamoyl)-phenyl]-amide], for which the figures for the IC50 in experiment [1] and in experiment [2] were 0.0343 µM and 0.0908 µM, respectively.
As to `COC(=O)c1ccc(Br)c(NC(=O)c2cc3cnc(OC)nc3[nH]c2=O)c1` [Example 48, 4-Bromo-3-[(2-methoxy-7-oxo-7,8-dihydro-pyrido[2,3-d]pyrimidine-6-carbonyl)-amino]-benzoic acid methyl ester], the IC50 in experiment [1] was determined as 0.205 µM; in experiment [2], 0.217 µM.
Turning to `COc1ncc2cc(C(=O)Nc3cc(C(=O)OCc4ccccc4)ccc3Cl)c(=O)[nH]c2n1` [Example 50, 4-Chloro-3-[(2-methoxy-7-oxo-7,8-dihydro-pyrido[2,3-d]pyrimidine-6-carbonyl)-amino]-benzoic acid benzyl ester], the inhibition at 10 µM in experiment [1] is 30%; in experiment [2], 3%.
As to `COc1ncc2cc(C(=O)Nc3cc(C(=O)OCc4ccccc4Cl)ccc3Cl)c(=O)[nH]c2n1` [Example 52, 4-Chloro-3-[(2-methoxy-7-oxo-7,8-dihydro-pyrido[2,3-d]pyrimidine-6-carbonyl)-amino]-benzoic acid 2-chloro-benzyl ester], the IC50 worked out at 1.19 µM in experiment [1] and 5.25 µM in experiment [2].
Consider `COc1ncc2cc(C(=O)Nc3cc(C(=O)OCc4cccc(Cl)c4)ccc3Cl)c(=O)[nH]c2n1` [Example 53, 4-Chloro-3-[(2-methoxy-7-oxo-7,8-dihydro-pyrido[2,3-d]pyrimidine-6-carbonyl)-amino]-benzoic acid 3-chloro-benzyl ester], for which the inhibition at 10 µM in experiment [1] was 32%. Further, the IC50 in experiment [2] was above 10 µM.
Consider `COc1ncc2cc(C(=O)Nc3cc(C(=O)N(C)C)ccc3Cl)c(=O)[nH]c2n1` [Example 55, 2-Methoxy-7-oxo-7,8-dihydro-pyrido[2,3-d]pyrimidine-6-carboxylic acid (2-chloro-5-dimethylcarbamoyl-phenyl)-amide], for which the IC50 in experiment [1] was 4.1 µM; in experiment [2] it was 1.37 µM.
Regarding `COc1ncc2cc(C(=O)Nc3cc(C(=O)NCc4cccc(C(F)(F)F)c4)ccc3Cl)c(=O)[nH]c2n1` [Example 59, 2-Methoxy-7-oxo-7,8-dihydro-pyrido[2,3-d]pyrimidine-6-carboxylic acid [2-chloro-5-(3-trifluoromethyl-benzylcarbamoyl)-phenyl]-amide], the IC50 in experiment [1] turned out to be 0.0723 µM; in experiment [2], 0.222 µM.
As for `COc1ncc2cc(C(=O)Nc3cc(C(=O)N(C)Cc4ccccc4)ccc3Cl)c(=O)[nH]c2n1` [Example 60, 2-Methoxy-7-oxo-7,8-dihydro-pyrido[2,3-d]pyrimidine-6-carboxylic acid [5-(benzyl-methyl-carbamoyl)-2-chloro-phenyl]-amide], the values for the IC50 in experiment [1] and in experiment [2] were 0.561 µM and 0.357 µM, respectively.
Taken in the same sequence, the figures for `COc1ncc2cc(C(=O)Nc3cc(C(=O)NCc4cccc(Cl)c4)ccc3C)c(=O)[nH]c2n1` [Example 62, 2-Methoxy-7-oxo-7,8-dihydro-pyrido[2,3-d]pyrimidine-6-carboxylic acid [5-(3-chloro-benzylcarbamoyl)-2-methyl-phenyl]-amide] were 0.119 µM and 0.437 µM.
On to `COc1ncc2cc(C(=O)Nc3cc(C(=O)N(C)Cc4cccc(Cl)c4)ccc3C)c(=O)[nH]c2n1` [Example 63, 2-Methoxy-7-oxo-7,8-dihydro-pyrido[2,3-d]pyrimidine-6-carboxylic acid {5-[(3-chloro-benzyl)-methyl-carbamoyl]-2-methyl-phenyl}-amide], for which the IC50 in experiment [1] came to 4.58 µM. For the same molecule, the inhibition at 10 µM in experiment [2] was 28%.
Consider `CN(Cc1cccc(Cl)c1)C(=O)c1ccc(Cl)c(NC(=O)c2cc3cnc(N4CCCCC4)nc3[nH]c2=O)c1` [Example 64, 7-oxo-2-piperidin-1-yl-7,8-dihydro-pyrido[2,3-d]pyrimidine-6-carboxylic acid {2-chloro-5-[(3-chloro-benzyl)-methyl-carbamoyl]-phenyl}-amide], for which the half-inhibitory concentration (IC50) in experiment [1] was found to be 0.903 µM. Further, the inhibition at 10 µM in experiment [2] came out at 46.6%.
For the molecule `COc1ncc2cc(C(=O)Nc3cc(C(=O)NCc4ccccn4)ccc3Cl)c(=O)[nH]c2n1` [Example 66, 2-Methoxy-7-oxo-7,8-dihydro-pyrido[2,3-d]pyrimidine-6-carboxylic acid {2-chloro-5-[(pyridin-2-ylmethyl)-carbamoyl]-phenyl}-amide], the IC50 in experiment [1] was 0.16 µM; in experiment [2], 0.282 µM.
With `COc1ncc2cc(C(=O)Nc3cc(C(=O)NCc4cccnc4)ccc3Cl)c(=O)[nH]c2n1` [Example 67, 2-Methoxy-7-oxo-7,8-dihydro-pyrido[2,3-d]pyrimidine-6-carboxylic acid {2-chloro-5-[(pyridin-3-ylmethyl)-carbamoyl]-phenyl}-amide], the IC50 in experiment [1] is 0.263 µM; in experiment [2], 0.669 µM.
On the same counts, the results for `COc1ncc2cc(C(=O)Nc3cc(C(=O)NCc4ccncc4)ccc3Cl)c(=O)[nH]c2n1` [Example 68, 2-Methoxy-7-oxo-7,8-dihydro-pyrido[2,3-d]pyrimidine-6-carboxylic acid {2-chloro-5-[(pyridin-4-ylmethyl)-carbamoyl]-phenyl}-amide] are 0.251 µM and 0.261 µM.
`COc1ncc2cc(C(=O)Nc3cc(C(=O)NCC(C)C)ccc3Cl)c(=O)[nH]c2n1` [Example 79, 2-Methoxy-7-oxo-7,8-dihydro-pyrido[2,3-d]pyrimidine-6-carboxylic acid (2-chloro-5-isobutylcarbamoyl-phenyl)-amide]: the values for the IC50 in experiment [1] and in experiment [2] were 0.779 µM and 1.52 µM, respectively.

The values are drawn from patent US20120184542A1, “PYRIDO PYRIMIDINES” (priority 2011, published 2012).
